In the NIST ThermoML archive (doi:10.1016/j.jct.2009.01.012):
± gives the expanded uncertainty stated by the source.

Key:
[1] = 101.33 kPa, Liquid, Vibrating tube method
[2] = refractive index (Na D-line) (dimensionless); conditions: 101.33 kPa, Liquid, Standard Abbe refractometry

Row | Compound | mass density ([1]; 313.15 K) | mass density ([1]; 333.15 K) | refractive index ([2]; 313.15 K) | refractive index ([2]; 333.15 K) | mass density ([1]; 293.15 K) | mass density ([1]; 298.15 K) | refractive index ([2]; 293.15 K) | refractive index ([2]; 298.15 K)
1 | CCCCCCCCCCCCCCn1cc[n+](C)c1.O=S(=O)([N-]S(=O)(=O)C(F)(F)F)C(F)(F)F | 1200.6 ± 2 kg/m3 | 1184 ± 2 kg/m3 | 1.43456 ± 0.00076 | 1.42854 ± 0.00076 |  |  |  | 
2 | CCCC[n+]1ccn(C)c1.O=S(=O)([N-]S(=O)(=O)C(F)(F)F)C(F)(F)F | 1421.6 ± 2.1 kg/m3 | 1402.6 ± 2.1 kg/m3 | 1.42251 ± 0.00075 | 1.41648 ± 0.00076 | 1440.8 ± 2.1 kg/m3 | 1436 ± 2.1 kg/m3 | 1.42853 ± 0.0008 | 1.42653 ± 0.00075
3 | CCn1cc[n+](C)c1.O=S(=O)([N-]S(=O)(=O)C(F)(F)F)C(F)(F)F | 1499.6 ± 2.1 kg/m3 | 1479.7 ± 2.1 kg/m3 | 1.41849 ± 0.00074 | 1.41346 ± 0.00074 | 1519.7 ± 2.1 kg/m3 | 1514.7 ± 2.1 kg/m3 | 1.42351 ± 0.00072 | 1.42251 ± 0.00074
4 | CCCCn1cc[n+](C)c1.F[P-](F)(F)(F)(F)F [1-butyl-3-methylimidazolium hexafluorophosphate] | 1351.3 ± 2.1 kg/m3 | 1334.9 ± 2.1 kg/m3 | 1.40543 ± 0.00073 | 1.4004 ± 0.00074 | 1367.9 ± 2.1 kg/m3 | 1363.7 ± 2.1 kg/m3 | 1.41045 ± 0.0008 | 1.40844 ± 0.00073
5 | CC(=O)[O-].CCCCCCCCCCCCCC[P+](CCCCCC)(CCCCCC)CCCCCC [trihexyl(tetradecyl)phosphonium acetate] | 882.3 ± 2.1 kg/m3 | 870.4 ± 2.1 kg/m3 | 1.47674 ± 0.00084 | 1.47072 ± 0.00083 | 894.5 ± 2.1 kg/m3 | 891.3 ± 2.1 kg/m3 | 1.48377 ± 0.00087 | 1.48176 ± 0.00085
6 | CCCCn1cc[n+](C)c1.F[B-](F)(F)F [1-butyl-3-methylimidazolium tetrafluoroborate] | 1188.7 ± 2 kg/m3 | 1174.6 ± 2 kg/m3 | 1.41748 ± 0.00074 | 1.41246 ± 0.00074 | 1202.9 ± 2 kg/m3 | 1199.4 ± 2 kg/m3 | 1.42251 ± 0.00072 | 1.4215 ± 0.00074
7 | CCCCCCCCn1cc[n+](C)c1.O=S(=O)([N-]S(=O)(=O)C(F)(F)F)C(F)(F)F | 1305.5 ± 2.1 kg/m3 | 1288 ± 2 kg/m3 | 1.42854 ± 0.00075 | 1.42251 ± 0.00076 | 1323.4 ± 2.1 kg/m3 | 1318.9 ± 2.1 kg/m3 | 1.43457 ± 0.0008 | 1.43256 ± 0.00075
8 | CCCCCCCCCCCCCC[P+](CCCCCC)(CCCCCC)CCCCCC.O=S(=O)([O-])C(F)(F)F | 972.5 ± 2 kg/m3 | 959.6 ± 2 kg/m3 | 1.45365 ± 0.00076 | 1.44662 ± 0.00078 | 985.6 ± 2 kg/m3 | 982.3 ± 2 kg/m3 | 1.45967 ± 0.0008 | 1.45766 ± 0.00075
9 | CCCCn1cc[n+](C)c1.COS(=O)(=O)[O-] [1-butyl-3-methylimidazolium methyl sulfate] | 1201.5 ± 2 kg/m3 | 1188.4 ± 2 kg/m3 | 1.47473 ± 0.00073 | 1.46971 ± 0.00074 | 1214.7 ± 2 kg/m3 | 1211.3 ± 2 kg/m3 | 1.47876 ± 0.00072 | 1.47775 ± 0.00072
